Test: xn = mol fraction of the nth substance listed
Conditions: Liquid, Vibrating tube method

CC12CCC(CC1)C(C)(C)O2 [1,3,3-trimethyl-2-oxabicyclo[2.2.2]octane] + CCCO
mass density [kg/m3]
Conditions	20000 kPa	25000 kPa	30000 kPa	35000 kPa	40000 kPa
283.15 K, x1 = 0.0499	839.5	842.9	845.8	848.9	851.6
283.15 K, x1 = 0.1061	853.7	856.9	859.8	862.8	865.5
283.15 K, x1 = 0.2029	873.3	876.4	879.3	882.3	885
283.15 K, x1 = 0.3028	889.7	892.8	895.6	898.6	901.4
283.15 K, x1 = 0.3955	901.8	905	907.9	910.7	913.5
283.15 K, x1 = 0.4938	912.4	915.6	918.5	921.3	924
283.15 K, x1 = 0.5904	921.2	924.4	927.3	930.1	932.9
283.15 K, x1 = 0.7	929.6	932.8	935.7	938.5	941.2
283.15 K, x1 = 0.7915	935.7	938.9	941.7	944.6	947.3
283.15 K, x1 = 0.8954	941.2	944.3	947.2	950.1	952.8
283.15 K, x1 = 0.9332	942.9	946.1	949	951.8	954.5
283.15 K, x1 = 1	945.9	949.1	952	954.9	957.6
298.15 K, x1 = 0.0499	828.6	831.8	835.1	838.1	841.2
298.15 K, x1 = 0.1061	842.6	845.8	849	852	855
298.15 K, x1 = 0.2029	862	865.2	868.4	871.4	874.4
298.15 K, x1 = 0.3028	878.3	881.6	884.7	887.7	890.6
298.15 K, x1 = 0.3955	890.5	893.7	896.7	899.8	902.7
298.15 K, x1 = 0.4938	901	904.3	907.3	910.3	913.2
298.15 K, x1 = 0.5904	909.7	912.9	915.9	918.9	921.9
298.15 K, x1 = 0.7	917.9	921.1	924.2	927.1	930.1
298.15 K, x1 = 0.7915	923.9	927.1	930.2	933.2	936.1
298.15 K, x1 = 0.8954	929.4	932.6	935.7	938.8	941.6
298.15 K, x1 = 0.9332	931.1	934.3	937.3	940.3	943.3
298.15 K, x1 = 1	934.1	937.4	940.5	943.4	946.4
313.15 K, x1 = 0.0499	817.1	820.8	824.3	827.5	830.7
313.15 K, x1 = 0.1061	831	834.7	838.1	841.3	844.5
313.15 K, x1 = 0.2029	850.4	854	857.4	860.7	863.9
313.15 K, x1 = 0.3028	866.6	870.2	873.5	876.7	879.8
313.15 K, x1 = 0.3955	878.6	882.2	885.5	888.7	891.7
313.15 K, x1 = 0.4938	889.1	892.6	895.9	899	902.1
313.15 K, x1 = 0.5904	897.7	901.2	904.5	907.6	910.8
313.15 K, x1 = 0.7	905.8	909.3	912.6	915.8	918.9
313.15 K, x1 = 0.7915	911.8	915.3	918.6	921.8	924.9
313.15 K, x1 = 0.8954	917.3	920.8	924	927.3	930.5
313.15 K, x1 = 0.9332	919.1	922.5	925.9	929.1	932.2
313.15 K, x1 = 1	922.3	925.8	929.1	932.4	935.5
328.15 K, x1 = 0.0499	805.9	809.7	813.3	816.8	820.2
328.15 K, x1 = 0.1061	819.7	823.5	827.1	830.6	833.9
328.15 K, x1 = 0.2029	838.9	842.6	846.3	849.6	853.1
328.15 K, x1 = 0.3028	854.9	858.6	862.1	865.6	868.9
328.15 K, x1 = 0.3955	866.9	870.5	874	877.4	880.9
328.15 K, x1 = 0.4938	877.2	880.9	884.4	887.9	891.2
328.15 K, x1 = 0.5904	885.9	889.6	893.1	896.5	899.9
328.15 K, x1 = 0.7	894	897.7	901.2	904.6	908
328.15 K, x1 = 0.7915	899.9	903.7	907.2	910.5	913.9
328.15 K, x1 = 0.8954	905.5	909.3	912.7	916.2	919.5
328.15 K, x1 = 0.9332	907.3	911	914.5	917.9	921.3
328.15 K, x1 = 1	910.6	914.3	917.9	921.3	924.7

— the NIST ThermoML archive (doi:10.1021/je100577v)
